Laboratory results from patent publication US20260152487A1 (Sitryx Therapeutics Limited, priority 2021, published 2026).

Experiments:
A549 cells = assay: A549 cell proliferation in low-serine medium (CellTiter-Glo 2.0 viable cell number); assay type: cell-based; conditions: Homo sapiens, 72 h, 3 days, Assay Medium with 20 μM L-serine
Procedure, shortened: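 A549 cells (600/well) were plated overnight and then exposed for 3 days at 37 °C to compound in Basal Medium Eagle with 3% dialysed FBS, 2 mM glutamine and 20 μM L-serine. Viable cell number was read by CellTiter-Glo luminescence and normalized to time-zero and DMSO controls. IC50 came from a 4-parameter logistic fit.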

recombinant human PKLR = target: T1, recombinant human PKLR (Homo sapiens, UniProt P30613); assay: Human PKLR activation assay (Kinase-Glo Plus luminescent detection of generated ATP); assay type: biochemical; conditions: for EC50: activation of recombinant human PKLR, 4-parameter logistic fit, read-out: hPKLR EC50; for Emax: percentage activation normalised to DMSO vehicle (LOW) and 5 μM TEPP-46 (HIGH) controls, read-out: hPKLR Emax (%)
T1 construct: His (N); purchased R&D Systems

recombinant human PKM2 = target: T2, recombinant human PKM2 (Homo sapiens, UniProt P14618); assay: Human PKM2 activation assay (Kinase-Glo Plus luminescent detection of generated ATP); assay type: biochemical; conditions: for Emax: percentage activation normalised to DMSO vehicle (LOW) and 5 μM TEPP-46 (HIGH), read-out: hPKM2 Emax; for EC50: recombinant human PKM2 activation, 4-parameter logistic fit, read-out: hPKM2 EC50
T2 construct: His (N); purchased R&D Systems
Procedure, shortened: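 N-His-tagged recombinant hPKM2 ([…]) with PEP and ADP was incubated with compound for 60 min at 26 °C, shaking, in 50 mM imidazole, 50 mM KCl, 7 mM MgCl2, 0.01% Tween20, 0.05% BSA, pH 7.2. ATP produced was read by Kinase-Glo Plus luminescence after 15 min.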

T1 sequence (P30613 whole entry): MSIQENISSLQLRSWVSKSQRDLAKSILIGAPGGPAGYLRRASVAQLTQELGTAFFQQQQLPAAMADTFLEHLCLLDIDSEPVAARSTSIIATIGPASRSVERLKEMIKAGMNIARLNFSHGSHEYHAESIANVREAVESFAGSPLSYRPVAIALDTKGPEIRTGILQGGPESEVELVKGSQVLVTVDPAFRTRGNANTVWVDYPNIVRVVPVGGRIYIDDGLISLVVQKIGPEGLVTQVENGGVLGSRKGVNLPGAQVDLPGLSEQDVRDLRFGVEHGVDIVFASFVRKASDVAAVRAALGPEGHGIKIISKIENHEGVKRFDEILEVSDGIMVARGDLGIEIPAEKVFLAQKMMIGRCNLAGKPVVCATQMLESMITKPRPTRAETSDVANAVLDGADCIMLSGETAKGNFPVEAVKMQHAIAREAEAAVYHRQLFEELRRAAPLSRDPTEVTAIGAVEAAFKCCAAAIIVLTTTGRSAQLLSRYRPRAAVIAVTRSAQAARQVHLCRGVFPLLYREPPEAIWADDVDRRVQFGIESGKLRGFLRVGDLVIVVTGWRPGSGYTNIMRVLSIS
T2 sequence (P14618 2-531 limits assumed): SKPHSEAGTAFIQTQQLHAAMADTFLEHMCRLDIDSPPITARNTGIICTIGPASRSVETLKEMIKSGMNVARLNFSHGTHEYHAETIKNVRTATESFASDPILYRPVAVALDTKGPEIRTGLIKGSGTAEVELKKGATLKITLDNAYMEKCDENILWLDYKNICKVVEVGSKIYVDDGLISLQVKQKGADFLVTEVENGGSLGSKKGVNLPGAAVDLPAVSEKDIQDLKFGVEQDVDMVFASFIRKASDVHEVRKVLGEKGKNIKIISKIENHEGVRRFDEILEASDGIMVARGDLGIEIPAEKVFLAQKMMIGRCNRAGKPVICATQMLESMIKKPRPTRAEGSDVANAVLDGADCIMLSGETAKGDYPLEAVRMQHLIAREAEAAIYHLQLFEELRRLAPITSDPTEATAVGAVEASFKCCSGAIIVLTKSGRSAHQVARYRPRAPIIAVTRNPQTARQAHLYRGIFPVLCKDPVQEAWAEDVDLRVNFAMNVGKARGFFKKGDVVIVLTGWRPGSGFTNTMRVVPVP

Compound | IC50 (A549 cells) | EC50 (recombinant human PKLR) | Emax (recombinant human PKLR) | Emax (recombinant human PKM2) | EC50 (recombinant human PKM2)
Cc1cc(Cn2ncc3cc(S(=O)(=O)c4ccccc4)ccc3c2=O)nn1C [Example 90, 2-((1,5-dimethyl-1H-pyrazol-3-yl)methyl)-6-(phenylsulfonyl)phthalazin-1(2H)-one] | 3 nM | 10.1 nM | 139% | 106% | 55.7 nM
Cn1ccc(Cn2ncc3cc(S(=O)(=O)c4ccccc4)ccc3c2=O)n1 [Example 60, 2-((1-methyl-1H-pyrazol-3-yl)methyl)-6-(phenylsulfonyl)phthalazin-1(2H)-one] | 3.6 nM | 34.1 nM | 122% | 110% | 100 nM
O=c1c2ccc(S(=O)(=O)c3ccccc3)cc2cnn1Cc1cc[nH]n1 [Example 68, 2-((1H-pyrazol-3-yl)methyl)-6-(phenylsulfonyl)phthalazin-1(2H)-one] | 2.2 nM | 17.1 nM | 134% | 117% | 70.8 nM
O=c1c2ccc(S(=O)(=O)c3ccccc3)cc2cnn1Cc1ccn(C2CC2)n1 [Example 73, 2-((1-cyclopropyl-1H-pyrazol-3-yl)methyl)-6-(phenylsulfonyl)phthalazin-1(2H)-one] | 3.5 nM | 14 nM | 117% | 99.9% | 30.2 nM
COc1ccc(S(=O)(=O)c2ccc3c(=O)n(Cc4cccnc4O)ncc3c2)cc1 [Example 56, 2-((2-hydroxypyridin-3-yl)methyl)-6-((4-methoxyphenyl)sulfonyl)phthalazin-1(2H)-one] | 1.7 nM | 10.1 nM | 131% | 98% | 51.9 nM
COc1ccc(S(=O)(=O)c2ccc3c(=O)n(Cc4cc(C)[nH]n4)ncc3c2)cc1 [Example 54, 6-((4-methoxyphenyl)sulfonyl)-2-((5-methyl-1H-pyrazol-3-yl)methyl)phthalazin-1(2H)-one] | 2.2 nM | 3.1 nM | 142% | 112% | 45.5 nM
Nc1cccc(Cn2ncc3cc(S(=O)(=O)c4ccccc4)ccc3c2=O)n1 [Example 38, 2-((6-aminopyridin-2-yl)methyl)-6-(phenylsulfonyl)phthalazin-1(2H)-one] | 1.5 nM | 5.3 nM | 149% | 115% | 40.1 nM
COc1ccc(S(=O)(=O)c2ccc3c(=O)n(Cc4ccn(C5CC5)n4)ncc3c2)cc1 [Example 1, 2-((1-cyclopropyl-1H-pyrazol-3-yl)methyl)-6-((4-methoxyphenyl)sulfonyl)phthalazin-1(2H)-one] | 1.2 nM | 4.7 nM | 159% | 129% | 27.6 nM
Cc1cccc(Cn2ncc3cc(S(=O)(=O)c4ccccc4)ccc3c2=O)n1 [Example 75, 2-((6-methylpyridin-2-yl)methyl)-6-(phenylsulfonyl)phthalazin-1(2H)-one] | 2.2 nM | 11.5 nM | 137% | 108% | 47.7 nM
COc1ccc(Cn2ncc3cc(S(=O)(=O)c4ccccc4)ccc3c2=O)cn1 [Example 41, 2-((6-methoxypyridin-3-yl)methyl)-6-(phenylsulfonyl)phthalazin-1(2H)-one] | 2 nM | 15.8 nM | 109% | 111% | 42.1 nM
Cc1cc(Cn2ncc3cc(S(=O)(=O)c4ccccc4)ccc3c2=O)n[nH]1 [Example 96, 2-((5-methyl-1H-pyrazol-3-yl)methyl)-6-(phenylsulfonyl)phthalazin-1(2H)-one] | 3.3 nM | 9.3 nM | 128% | 116% | 62.6 nM
O=c1c2ccc(S(=O)(=O)c3ccccc3)cc2cnn1Cc1cncc(O)c1 [Example 7, 2-((5-hydroxypyridin-3-yl)methyl)-6-(phenylsulfonyl)phthalazin-1(2H)-one] | 6.7 nM | – | – | 99.8% | 177 nM
Cc1cn(C)nc1Cn1ncc2cc(S(=O)(=O)c3ccccc3)ccc2c1=O [Example 89, 2-((1,4-dimethyl-1H-pyrazol-3-yl)methyl)-6-(phenylsulfonyl)phthalazin-1(2H)-one] | 1.7 nM | 9.6 nM | 135% | 101% | 50.8 nM
O=c1c2ccc(S(=O)(=O)c3ccccc3)cc2cnn1Cc1ccc(OC(F)F)nc1 [Example 62, 2-((6-(difluoromethoxy)pyridin-3-yl)methyl)-6-(phenylsulfonyl)phthalazin-1(2H)-one] | 2.5 nM | – | – | 89.5% | 38.7 nM
COc1ccc(S(=O)(=O)c2ccc3c(=O)n(Cc4ccn(CCO)n4)ncc3c2)cc1 [Example 24, 2-((1-(2-hydroxyethyl)-1H-pyrazol-3-yl)methyl)-6-((4-methoxyphenyl)sulfonyl)phthalazin-1(2H)-one] | 3 nM | – | – | 123% | 107 nM
O=c1c2ccc(S(=O)(=O)c3ccccc3)cc2cnn1Cc1ccccc1CCO [Example 63, 2-(2-(2-hydroxyethyl)benzyl)-6-(phenylsulfonyl)phthalazin-1(2H)-one] | 4.3 nM | – | – | 101% | 167 nM
